# According to patent publication US8546442B2, “Pyrazolopiperidine compounds as CCR1 receptor antagonists” (Boehringer Ingelheim International GmbH, priority 2010, dated 2013):
# Target: T1, CCR1 (Homo sapiens, UniProt P32246)
# T1 sequence (P32246 1-355): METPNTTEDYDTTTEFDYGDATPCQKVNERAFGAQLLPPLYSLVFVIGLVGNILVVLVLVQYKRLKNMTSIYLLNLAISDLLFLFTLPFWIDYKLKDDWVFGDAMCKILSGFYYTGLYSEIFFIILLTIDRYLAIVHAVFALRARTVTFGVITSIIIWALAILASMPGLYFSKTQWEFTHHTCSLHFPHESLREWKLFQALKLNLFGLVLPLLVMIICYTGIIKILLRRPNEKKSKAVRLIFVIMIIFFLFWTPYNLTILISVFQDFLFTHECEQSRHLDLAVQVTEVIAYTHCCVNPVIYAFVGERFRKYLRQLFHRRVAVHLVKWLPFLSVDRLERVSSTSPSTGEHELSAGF
# Assay: calcium flux in CCR1 transfected cells, Method B (Calcium 4 dye, HAMAMATSU FDSS6000)
# Type: cell-based
# Details: cells stably expressing recombinant CCR1 and G-alpha-16, MIP-1alpha at EC80
# Method: Compounds are assessed for the ability to block the interaction of CCR1 and MIP-1α in a functional cellular assay measuring calcium flux in CCR1 transfected cells.
# Method B: Non-adherent cells purchased from Chemicon Corporation (HTS005C), stably expressing recombinant CCR1 and G-alpha-16 are grown in RPMI 1640 medium (Mediatech 10-080-CM) supplemented with 10% FBS, 0.4 mg/mL Geneticin and penicillin/streptomycin. On the day of the assay, the cells are loaded with Calcium 4 dye (Molecular Devices R7448) with Probenecid (Invitrogen P346400) at 8E5 cells/mL for 1 hour at room temperature. After 1 hour, they are seeded in a 384-well tissue culture-treated plate at a density of 20,000 cells/well. Appropriately diluted test compound is added to the well to achieve a top concentration of 3,000 nM (diluted 4-fold with 10 doses total). The final concentration of DMSO is 1%. The buffer is HBSS (Invitrogen 14025) with 20 mM HEPES at pH 7.4. The cells incubate 30 minutes at 37 C and then 30 minutes at room temperature. The plates are transferred to the HAMAMATSU FDSS6000 where MIP-1alpha in 1% BSA is added at the EC80 final concentration. All plates must be read within 4 hours of the start of dye-loading. Wells+/−MIP-1alpha containing diluted DMSO instead of compound serve as the controls. Data are analyzed using Activity Base software.
row,SMILES,IC50 [µM]
1,CC[C@H](NC(=O)N1CCc2c1cnn2-c1ccc(F)cc1)c1cccc(S(C)(=O)=O)c1 [Example 89],0.034
2,CCC[C@H](NC(=O)N1c2cnn(-c3ccc(F)cc3)c2CCC1C(F)(F)F)c1ccc(S(C)(=O)=O)c(OC)c1 (some centres unmarked) [Example 105],0.005
3,CCC[C@H](NC(=O)N1CCCCc2c1cnn2-c1ccc(F)cc1)c1ccnc(S(C)(=O)=O)c1 [Example 72],0.344
4,O=C(NCc1ccc(S(=O)(=O)N2CCOCC2)cc1)N1CCCc2c1cnn2-c1ccc(F)cc1 [Example 27],0.068
5,CCC[C@H](NC(=O)N1CCCc2c1cnn2C1CCCCC1)c1ccnc(S(C)(=O)=O)c1 [Example 65],0.33
6,CCC[C@H](NC(=O)N1CC(C)(C)Cc2c1cnn2-c1ccc(F)cc1)c1ccnc(S(C)(=O)=O)c1 [Example 103],0.0007
7,CC[C@H](NC(=O)N1c2cnn(-c3ccc(F)cc3)c2CC1C)c1cccc(S(C)(=O)=O)c1 (some centres unmarked) [Example 109],0.011
8,O=C(NCc1ccccc1F)N1CCCc2c1cnn2-c1ccc(F)cc1 [Example 8],0.266
9,C[C@@H](NC(=O)N1CCCc2c1cnn2-c1ccc(F)cc1)c1ccccc1 [Example 6],0.125
10,"CS(=O)(=O)c1ccc(CNC(=O)N2CCCc3c2cnn3-c2ccc(F)cc2)cc1O [Example 43, 1-(4-Fluorophenyl)-1,5,6,7-tetrahydro-pyrazolo[4,3-b]pyridine-4-carboxylic acid 3-hydroxy-4-methanesulfonyl-benzylamide]",0.025
11,O=C(NCc1cccc(F)c1)N1CCCc2c1cnn2-c1ccc(F)cc1 [Example 9],0.108
12,CS(=O)(=O)c1ccc(CNC(=O)N2CCCc3c2cnn3-c2ccc(F)cc2)cn1 [Example 30],0.094
13,CCC[C@H](NC(=O)N1c2cnn(-c3ccc(F)cc3)c2CCC1C(F)(F)F)c1cc(F)cc(S(C)(=O)=O)c1 (some centres unmarked) [Example 90],0.006
14,O=C(Nc1cccc(C(F)(F)F)c1)N1CCCc2c1cnn2-c1ccc(F)cc1 [Example 15],0.115
15,CCC[C@H](NC(=O)N1c2cnn(-c3ccc(Cl)cc3)c2CCC1C)c1ccnc(S(C)(=O)=O)c1 (some centres unmarked) [Example 93],0.018
16,CCC[C@H](NC(=O)N1c2cnn(-c3ccc(F)cc3)c2CCC1C(F)(F)F)c1ccc(OC)c(Br)c1 (some centres unmarked) [Example 97],0.005
17,CS(=O)(=O)c1cc(CNC(=O)N2CCCc3c2cnn3-c2ccc(F)cc2)ccn1 [Example 32],0.034
18,CCC[C@H](NC(=O)N1c2cnn(-c3ccc(F)cc3)c2CCC1C(F)(F)F)c1ccc(Br)cc1F (some centres unmarked) [Example 68],0.205
19,CCC[C@H](NC(=O)N1CCCc2c1c(C)nn2-c1ccc(F)cc1)c1ccnc(S(C)(=O)=O)c1 [Example 98],1.57
20,CCC[C@H](NC(=O)N1c2cnn(-c3ccc(F)cc3)c2CCC1C(F)(F)F)c1ccc(O)c(S(C)(=O)=O)c1 (some centres unmarked) [Example 96],0.007
21,CCC[C@H](NC(=O)N1CCCc2c1cnn2C1CCCC1)c1ccnc(S(C)(=O)=O)c1 [Example 67],0.194
22,Cc1cccc(CNC(=O)N2CCCc3c2cnn3-c2ccc(F)cc2)c1 [Example 18],0.131
23,CCC[C@H](NC(=O)N1c2cnn(-c3ccc(F)cc3)c2CC[C@@H]1C)c1cncc(S(C)(=O)=O)c1 [Example 111],0.022
24,CCC[C@H](NC(=O)N1c2cnn(-c3ccc(F)cc3)c2CCC1C(F)(F)F)c1ccc(Br)c(OC)c1 (some centres unmarked) [Example 104],0.057
25,O=C(NCc1ccccc1)N1CCCc2c1cnn2-c1ccc(F)cc1 [Example 19],0.395

row,SMILES,IC50 [µM]
1,"CCC[C@H](NC(=O)N1c2cnn(-c3ccc(F)cc3)c2CCC1C)c1ccnc(S(C)(=O)=O)c1 (single isomer, unassigned) [Example 80]",0.031
2,CC[C@H](NC(=O)N1c2cnn(-c3ccc(F)cc3)c2CCC1C(F)(F)F)c1ccnc(S(C)(=O)=O)c1 (some centres unmarked) [Example 58],0.084
3,CCC[C@H](NC(=O)N1CCCc2c1c(C)nn2-c1ccc(F)cc1)c1cncc(S(C)(=O)=O)c1 [Example 99],1.5
4,COc1ccccc1CNC(=O)N1CCCc2c1cnn2-c1ccc(F)cc1 [Example 11],0.61
5,"CCC[C@H](NC(=O)N1CCc2c1cnn2-c1ccc(F)cc1)c1ccnc(S(C)(=O)=O)c1 [Example 87, 1-(4-Fluorophenyl)-5,6-dihydro-1H-pyrrolo[3,2-c]pyrazole-4-carboxylic acid [(S)-1-(2-methanesulfonyl-pyridin-4-yl)-butyl]-amide]",0.01
6,CCC[C@H](NC(=O)N1CC(C(F)(F)F)Cc2c1cnn2-c1ccc(F)cc1)c1ccnc(S(C)(=O)=O)c1 (some centres unmarked) [Example 78],0.004
7,CS(=O)(=O)c1cc(C2(NC(=O)N3c4cnn(-c5ccc(F)cc5)c4CCC3C(F)(F)F)CC2)ccn1 (centres unmarked) [Example 64],1.85
8,O=C(NCc1ccccc1Cl)N1CCCc2c1cnn2-c1ccc(F)cc1 [Example 12],0.138
9,CCC[C@H](NC(=O)N1CCc2c1cnn2-c1ccc(F)cc1)c1ccnc(C)c1 [Example 88],0.052
10,CCC[C@H](NC(=O)N1CC(C(F)(F)F)Cc2c1cnn2-c1ccc(F)cc1)c1ccnc(S(C)(=O)=O)c1 (some centres unmarked) [Example 79],0.002
11,CCC[C@H](NC(=O)N1c2cnn(-c3ccc(F)cc3)c2CCC1C(F)(F)F)c1ccc(S(C)(=O)=O)cc1F (some centres unmarked) [Example 69],0.011
12,CC1CCc2c(cnn2-c2ccc(F)cc2)N1C(=O)N[C@@H](C)c1ccnc(S(C)(=O)=O)c1 (some centres unmarked) [Example 54],0.684
13,CCC[C@H](NC(=O)N1CC(C(=O)NCCO)Cc2c1cnn2-c1ccc(F)cc1)c1ccnc(S(C)(=O)=O)c1 (some centres unmarked) [Example 117],0.001
14,"CCC[C@H](NC(=O)N1CC(C(=O)O)Cc2c1cnn2-c1ccc(F)cc1)c1ccnc(S(C)(=O)=O)c1 (stereo partly drawn) [Example 115, 1-(4-Fluorophenyl)-4-[(S)-1-(2-methanesulfonyl-pyridin-4-yl)-butylcarbamoyl]-4,5,6,7-tetrahydro-1H-pyrazolo[4,3-b]pyridine-6-carboxylic acid]",0.023
15,"CCC[C@H](NC(=O)N1c2cnn(-c3ccc(F)cc3)c2CCC1C)c1ccnc(S(C)(=O)=O)c1 (single isomer, unassigned) [Example 81]",0.004
16,CC[C@H](NC(=O)N1c2cnn(-c3ccc(F)cc3)c2CCC1C(F)(F)F)c1ccc(S(C)(=O)=O)c(OC)c1 (some centres unmarked) [Example 84],0.014
17,CCC[C@H](NC(=O)N1CC(C(=O)NC)Cc2c1cnn2-c1ccc(F)cc1)c1ccnc(S(C)(=O)=O)c1 (some centres unmarked) [Example 116],0.001
18,C[C@H](NC(=O)N1CCCc2c1cnn2-c1ccc(F)cc1)c1ccccc1 [Example 2],0.453
19,O=C(NCCc1ccccc1)N1CCCc2c1cnn2-c1ccc(F)cc1 [Example 3],0.126
20,CCC[C@H](NC(=O)N1c2cnn(-c3ccc(F)cc3)c2CCC1C(F)(F)F)c1ccc(OC)c(S(C)(=O)=O)c1 (some centres unmarked) [Example 95],0.006
21,CCC[C@H](NC(=O)N1CCCc2c1cnn2-c1ccc(F)c(Cl)c1)c1ccnc(S(C)(=O)=O)c1 [Example 86],0.002
22,O=C(NCc1ccc(Cl)cc1Cl)N1CCCc2c1cnn2-c1ccc(F)cc1 [Example 16],0.012
23,COc1cccc(CNC(=O)N2CCCc3c2cnn3-c2ccc(F)cc2)c1 [Example 20],0.091
24,CCC[C@H](NC(=O)N1c2cnn(-c3ccc(F)cc3)c2CCC1C)c1ccnc(S(C)(=O)=O)c1 (some centres unmarked) [Example 70],0.005
25,CC[C@H](NC(=O)N1c2cnn(-c3ccc(F)cc3)c2CCC1C(F)(F)F)c1ccc(OC)c(S(C)(=O)=O)c1 (some centres unmarked) [Example 82],0.023
